Measurements taken from patent US7709649B2, “Multi-substituted pyridyl sulfoximines and their use as insecticides” (Dow AgroSciences LLC, priority 2006, dated 2010).

Legend:
[1] = test system: green peach aphid (Myzus persicae); test: Insecticidal test for green peach aphid in foliar spray assay; assay type: in vivo; set-up: key to GPA 200: % control at 200 ppm against green peach aphid in foliar spray tests / GPA 50: % control at 50 ppm against green peach aphid in foliar spray tests: A: 90-100; B: 80-89; C: 70-79; D: 60-69; E: 50-59; F: Less than 50; G: Inactive; H: Not tested; conditions: foliar spray on cabbage seedlings, 3 days, Corrected % Control (Abbott); for pest or weed control at 50 ppm: Myzus persicae, 72 h, read-out: GPA 50: % control at 50 ppm against green peach aphid in foliar spray tests
Procedure: where • X=No. of live aphids on solvent check plants • Y=No. of live aphids on treated plants Insecticidal Test for Green Peach Aphid (Myzus persicae) in Foliar Spray Assay Cabbage seedlings grown in 3-inch pots, with 2-3 small (3-5 cm) true leaves, were used as test substrate. The seedlings were infested with 20-50 green peach aphids (wingless adult and nymph) 2-3 days prior to chemical application. Four seedlings were used for each treatment. Compounds (2 mg) were dissolved in 2 ml of acetone:methanol (1:1) solvent, forming stock solutions of 1000 ppm. The stock solutions were diluted 5× with 0.025% Tween 20 in H2O to obtain the highest test solution at 200 ppm. A lower test concentration of 50 ppm was prepared by making a 4× dilution from the 200 ppm solution with a diluent consisting 80 parts of 0.025% Tween 20 in H2O and 20 parts of acetone: methanol (1:1). A hand-held Devilbiss sprayer was used for spraying a solution to both sides of cabbage leaves until runoff. Reference plants (solvent check) were sprayed with the diluent only. Treated plants were held in a holding room for three days at approximately 23° C. and 40% RH prior to grading. Evaluation was conducted by counting the number of live aphids per plant under a microscope. Insecticidal activity was measured by using Abbott's correction formula: Corrected % Control=100*(X−Y)/X where • X=No. of live aphids on solvent check plants • Y=No. of live aphids on treated plants The Corrected % Control values from the above assays are given in Table 1.

[2] = test system: cotton aphid (Aphis gossypii); test: Insecticidal test for cotton aphid in foliar spray assay; assay type: in vivo; conditions: for pest or weed control at 50 ppm / pest or weed control at 200 ppm: Aphis gossypii, 72 h, foliar spray on squash, 3 days, Corrected % Control (Abbott), Table 1; for pest or weed control at 50 ppm: read-out: CA 50: % control at 50 ppm against cotton aphid in foliar spray tests; for pest or weed control at 200 ppm: read-out: CA 200: % control at 200 ppm against cotton aphid in foliar spray tests; for CA 0.78: % Control at ppm against cotton aphid (foliar spray): 0.78 ppm; for CA 0.78: % Control at ppm against cotton aphid (foliar spray) / CA 3.13: % Control at ppm against cotton aphid (foliar spray) / CA 12.5: % Control at ppm against cotton aphid (foliar spray) / CA 50: % Control at ppm against cotton aphid (foliar spray): rundown assay, Table 2; for CA 3.13: % Control at ppm against cotton aphid (foliar spray): 3.13 ppm; for CA 12.5: % Control at ppm against cotton aphid (foliar spray): 12.5 ppm; for pest or weed control at 50 ppm / CA 50: % Control at ppm against cotton aphid (foliar spray): 50 ppm
Procedure: Insecticidal Test for Cotton Aphid (Aphis gossypii) in Foliar Spray Assay Squash with fully expanded cotyledon leaves were trimmed to one cotyledon per plant and infested with cotton aphid (wingless adult and nymph) 1 day prior to chemical application. Each plant was examined before chemical application to ensure proper infestation (ca. 30-70 aphids per plant). Compounds (2 mg) were dissolved in 2 ml of acetone:methanol (1:1) solvent, forming stock solutions of 1000 ppm. The stock solutions were diluted 5× with 0.025% Tween 20 in H2O to obtain the highest test solution at 200 ppm. Lower test concentrations (50, 12.5, 3.13 and 0.78 ppm) were prepared by making sequential 4× dilutions from the 200 ppm solution with a diluent consisting 80 parts of 0.025% Tween 20 in H2O and 20 parts of acetone:methanol (1:1). A hand-held Devilbiss sprayer was used to apply the spray solutions until runoff to both sides of the squash cotyledon leaves. Four plants (4 replications) were used for each concentration of each compound. Reference plants (solvent check) were sprayed with the diluent only. Treated plants were held in a holding room for 3 days at approximately 23° C. and 40% RH before the number of live aphids on each plant was recorded. Insecticidal activity was measured by Corrected % Control using Abbott's correction formula: Corrected % Control=100*(X−Y)/X where • X=No. of live aphids on solvent check plants • Y=No. of live aphids on treated plants Insecticidal Test for Green Peach Aphid (Myzus persicae) in Foliar Spray Assay

Row | melting point | SMILES | GPA 50: % control at 50 ppm against green peach aphid in foliar spray tests [1] | pest or weed control at 50 ppm [2] | pest or weed control at 200 ppm [2] | GPA 200: % control at 200 ppm against green peach aphid in foliar spray tests [1] | pest or weed control at 50 ppm [1] | CA 0.78: % Control at ppm against cotton aphid (foliar spray) [2] | CA 3.13: % Control at ppm against cotton aphid (foliar spray) [2] | CA 12.5: % Control at ppm against cotton aphid (foliar spray) [2] | CA 50: % Control at ppm against cotton aphid (foliar spray) [2]
1 |  | CS(=O)(Cc1cnc(Cl)c(Cl)c1)=NC#N (centres unmarked) [Compound 1, [(5,6-dichloropyridin-3-yl)methyl](methyl)-oxido λ^4-sulfanylidenecyanamide] | G | 90 to 100% | 90 to 100% |  |  |  |  |  | 
2 |  | CS(=O)(Cc1cnc(Cl)c(F)c1)=NC#N (centres unmarked) [Compound 2, [(5-fluroro-6-chloropyridin-3-yl)methyl](methyl)-oxido-λ^4-sulfanylidenecyanamide] |  | 90 to 100% | 90 to 100% | B (80-89) | 50 to 59% | A (90-100) | A (90-100) | A (90-100) | A (90-100)
3 |  | CC(c1cnc(Cl)c(F)c1)S(C)(=O)=NC#N (centres unmarked) [Compound 3, [1-(5-fluoro-6-chloropyridin-3-yl)ethyl](methyl)-oxido-λ^4-sulfanylidenecyanamid] |  | 90 to 100% | 90 to 100% | A (90-100) | 80 to 89% | A (90-100) | A (90-100) | A (90-100) | A (90-100)
4 |  | CSc1ncc(C(C)S(C)(=O)=NC#N)cc1F (centres unmarked) [Compound 4, [1-(5-fluoro-6-methylthioyridin-3-yl)ethyl]-(methyl)-oxido-λ^4-sulfanylidenecyanamide] | G | 80 to 89% | 90 to 100% | G |  |  |  |  | 
5 | 123 to 125 °C | COc1cc(CS(C)(=O)=NC#N)cnc1Cl (centres unmarked) [Compound 5, [(5-methoxy-6-chloropyridin-3-yl)methyl](methyl)-oxido-λ^4-sulfanylidenecyanamide] | G | 70 to 79% | 90 to 100% | G |  |  |  |  | 
6 |  | COc1cc(C(C)S(C)(=O)=NC#N)cnc1Cl (centres unmarked) [Compound 6, [1-(5-methoxy-6-chloropyridin-3-yl)ethyl](methyl)-oxido-λ^4-sulfanylidenecyanamide] | G | 60 to 69% | 90 to 100% | G |  |  |  |  | 
7 |  | CS(=O)(Cc1cnc(Cl)c(Br)c1)=NC#N (centres unmarked) [Compound 7, [(5-bromo-6-chloropyridin-3-yl)methyl](methyl)-oxido-λ^4-sulfanylidenecyanamide] | G | 90 to 100% | 90 to 100% | G |  |  |  |  | 
8 |  | CC(c1cnc(Cl)c(Br)c1)S(C)(=O)=NC#N (centres unmarked) [Compound 8, [1-(5-bromo-6-chloropyridin-3-yl)ethyl](methyl)-oxido-λ^4-sulfanylidenecyanamide] | G | 90 to 100% | 90 to 100% | B (80-89) |  | E (50-59) | A (90-100) | A (90-100) | A (90-100)
9 |  | CS(=O)(Cc1cnc(Cl)cc1Cl)=NC#N (centres unmarked) [Compound 9, [(4,6-dichloropyridin-3-yl)methyl](methyl)-oxido λ^4-sulfanylidenecyanamide] | G | 90 to 100% | 90 to 100% |  |  |  |  |  | 
